Test results: patent US20240262815A1, “HETEROARYL DERIVATIVE, METHOD FOR PREPARING SAME, AND PHARMACEUTICAL COMPOSITION COMPRISING SAME AS ACTIVE INGREDIENT” (VORONOI INC., priority 2021, published 2024)

Legend:
[1] = tested on: BT-474 cancer cells; assay: Inhibitory activity against proliferation of BT-474 cancer cells (CellTiter-Glo); assay type: cell-based; conditions: Homo sapiens, BT-474 ErbB2-overexpressing cancer cells, 120 hours after treatment
Summary of the method: (§1)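 GI50 derived from % growth relative to control, measured by CellTiter-Glo luminescence after 120 h compound exposure (12 concentrations, 0.2 nM-5 μM final, n=3). BT-474 grown in RPMI-1640/20% FBS, SK-BR-3 in McCOY'S 5A/10% FBS; seeding 48 h pre-treatment.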

[2] = tested on: SK-BR-3 cancer cells; assay: Inhibitory activity against proliferation of SK-BR-3 cancer cells (CellTiter-Glo); assay type: cell-based; conditions: Homo sapiens, SK-BR-3, 120 h, ErbB2-overexpressing SK-BR-3 cells, 120 hours after treatment
Summary of the method: as §1

Row | Structure (SMILES) | GI50 [1] | GI50 [2]
1 | C=CC(=O)Nc1cc(Nc2cc(N3OCC[C@@H]3c3cccc(-c4cccc(F)c4)c3)ncn2)c(OC)cc1N1CCN(C2COC2)CC1 [Example 293, (R)-N-(5-((6-(3-(3′-fluoro-[1,1′-biphenyl]-3-yl)-isoxazolidin-2-yl)-pyrimidin-4-yl)-amino)-4-methoxy-2-(4-(oxetan-3-yl)-piperazin-1-yl)-phenyl)acrylamide] | 50 to 500 nM | < 50 nM
2 | C=CC(=O)Nc1cc(Nc2cc(N3OCC[C@@H]3c3cccc(-c4cccc(F)c4)c3)ncn2)c(OC)cc1N1CCN(C)[C@@H](C)C1 [Example 307, N-(2-((S)-3,4-dimethylpiperazin-1-yl)-5-((6-((R)-3-(3′-fluoro-[1,1′-biphenyl]-3-yl)-isoxazolidin-2-yl)-pyrimidin-4-yl)-amino)-4-methoxy-phenyl)acrylamide] | < 50 nM | < 50 nM
3 | C=CC(=O)Nc1cc(Nc2cc(N3OCCC3c3ccc(Cl)c(OCc4cccc(F)c4)c3)ncn2)c(OC)cc1N1CCC(N2CCN(C3CC3)CC2)CC1 (centres unmarked) [Example compound 116, N-(5-((6-(3-(4-chloro-3-((3-fluorobenzyl)oxy)phenyl)isoxazolidin-2-yl)pyrimidin-4-yl)amino)-2-(4-(4-cyclopropylpiperazin-1-yl)piperidin-1-yl)-4-methoxyphenyl)acrylamide] | 50 to 500 nM | < 50 nM
4 | C=CC(=O)Nc1cc(Nc2cc(N3OCCC3c3cccc(-c4cc(F)cc(F)c4)c3)ncn2)c(OC)cc1N(C)CCN(C)C (centres unmarked) [Example 265, N-(5-((6-(3-(3′,5′-difluoro-[1,1′-biphenyl]-3-yl)-isoxazolidin-2-yl)-pyrimidin-4-yl)-amino)-2-((2-(dimethylamino)-ethyl)(methyl)-amino)-4-meth-oxyphenyl)acryl-amide] | < 50 nM | < 50 nM
5 | C=CC(=O)Nc1cc(Nc2cc(N3OCC[C@@H]3c3cccc(OCc4cccc(F)c4)c3)ncn2)c(OC)cc1N(C)CCN(C)C [Example 228, (R)-N-(2-((2-(dimethylamino)-ethyl)(methyl)-amino)-5-((6-(3-(3-((3-fluorobenz-yl)oxy)phenyl)-isoxazolidin-2-yl)-pyrimidin-4-yl)-amino)-4-methoxy-phenyl)acrylamide] | < 50 nM | < 50 nM
6 | C=CC(=O)Nc1cc(Nc2cc(N3OCCC3c3cccc(-c4ccc(C)s4)c3)ncn2)c(OC)cc1N(C)CCN(C)C (centres unmarked) [Example 213, N-(2-((2-(dimeth-ylamino)ethyl)-(methyl)amino)-4-methoxy-5-((6-(3-(3-(5-methylthio-phen-2-yl)phenyl)-isoxazolidin-2-yl)-pyrimidin-4-yl)-amino)phenyl)-acrylamide] | 50 to 500 nM | 50 to 500 nM
7 | C=CC(=O)Nc1cc(Nc2cc(N3OCC[C@@H]3c3cccc(-c4ccccc4)c3)ncn2)c(OC)cc1N1CCO[C@H](C)C1 [Example 176, N-(5-((6-((R)-3-([1,1′-biphenyl]-3-yl)isoxazolidin-2-yl)pyrimidin-4-yl)-amino)-4-methoxy-2-((R)-2-methyl-morpholino)phen-yl)acrylamide] | < 50 nM | < 50 nM
8 | C=CC(=O)Nc1cc(Nc2cc(N3OCC[C@@H]3c3cccc(-c4cc(F)cc(F)c4)c3)ncn2)c(OC)cc1N1CCN(CCC)CC1 [Example 278, (R)-N-(5-((6-(3-(3′,5′-difluoro-[1,1′-biphenyl]-3-yl)isoxazolidin-2-yl)pyrimidin-4-yl)-amino)-4-methoxy-2-(4-propylpiper-azin-1-yl)phenyl)-acrylamide] | < 50 nM | < 50 nM
9 | C=CC(=O)Nc1cc(Nc2cc(N3OCC[C@@H]3c3cccc(-c4ccc(OC)nc4)c3)ncn2)c(OC)cc1N(C)CCN(C)C [Example 300, (R)-N-(2-((2-(dimethylamino)-ethyl)(methyl)-amino)-4-methoxy-5-((6-(3-(3-(6-methoxypyridin-3-yl)phenyl)isox-azolidin-2-yl)pyr-imidin-4-yl)amino)-phenyl)acrylamide] | < 50 nM | < 50 nM
10 | COc1cc(N2CCN(C)CC2)c(NC(=O)/C=C/CN(C)C)cc1Nc1cc(N2OCC[C@@H]2c2cccc(-c3cccc(F)c3)c2)ncn1 [Example 285, (R,E)-4-(dimethyl-amino)-N-(5-((6-(3-(3′-fluoro-[1,1′-biphenyl]-3-yl)-isoxazolidin-2-yl)-pyrimidin-4-yl)-amino)-4-methoxy-2-(4-methylpiper-azin-1-yl)phenyl)-but-2-enamide] | < 50 nM | < 50 nM
11 | C=CC(=O)Nc1cc(Nc2cc(N3OCC[C@@H]3c3cccc(-c4cc(F)cc(F)c4)c3)ncn2)c(OC)cc1N1CCN(C)CC1 [Example 276, (R)-N-(5-((6-(3-(3′,5′-difluoro-[1,1′-biphenyl]-3-yl)isoxazolidin-2-yl)pyrimidin-4-yl)-amino)-4-methoxy-2-(4-methylpiper-azin-1-yl)phenyl)-acrylamide] | < 50 nM | < 50 nM
12 | C=CC(=O)Nc1cc(Nc2cc(N3OCC[C@@H]3c3cccc(-c4cccc(F)c4)c3)ncn2)c(OC)cc1N1CC2(CN(C(=O)OC(C)(C)C)C2)C1 [Example 295, tert-butyl (R)-6-(2-acrylamido-4-((6-(3-(3′-fluoro-[1,1′-biphenyl]-3-yl)-isoxazolidin-2-yl)-pyrimidin-4-yl)-amino)-5-methoxy-phenyl)-2,6-diazaspiro[3.3]-heptane-2-carbox-ylate] | < 50 nM | 50 to 500 nM
13 | C=CC(=O)Nc1cc(Nc2cc(N3OCCC3c3ccc(F)c(OCc4cccc(F)c4)c3)ncn2)c(OC)cc1N1CCC(N2CCN(C3CC3)CC2)CC1 (centres unmarked) [Example compound 150, N-(2-(4-(4-cyclopropylpiperazin-1-yl)piperidin-1-yl)-5-((6-(3-(4-fluoro-3-((3-fluorobenzyl)oxy)phenyl)isoxazolidin-2-yl)pyrimidin-4-yl)amino)-4-methoxyphenyl)acrylamide] | < 50 nM | < 50 nM
14 | C=CC(=O)Nc1cc(Nc2cc(N3OCC[C@@H]3c3cccc(-c4ccc(O)nc4)c3)ncn2)c(OC)cc1N(C)CCN(C)C [Example 301, (R)-N-(2-((2-(dimethylamino)-ethyl)(methyl)-amino)-5-((6-(3-(3-(6-hydroxy-pyridin-3-yl)phen-yl)-isoxazolidin-2-yl)pyrimidin-4-yl)amino)-4-meth-oxyphenyl)acryl-amide] | < 50 nM | 50 to 500 nM
15 | C=CC(=O)Nc1cc(Nc2cc(N3OCC[C@@H]3c3cccc(-c4cccc(F)c4)c3)ncn2)c(OC)cc1N1CCN(C2CC2)[C@@H](C)C1 [Example 320, N-(2-((S)-4-cyclo-propyl-3-methyl-piperazin-1-yl)-5-((6-((R)-3-(3′-fluoro-[1,1′-biphen-yl]-3-yl)isoxazol-idin-2-yl)pyrim-idin-4-yl)amino)-4-methoxyphen-yl)acrylamide] | < 50 nM | < 50 nM
16 | C=CC(=O)Nc1cc(Nc2cc(N3OCC[C@@H]3c3cccc(-c4cccc(F)c4)c3)ncn2)c(OC)cc1N1CCN2CCCC2C1 (stereo partly drawn) [Example 318, N-(5-((6-((R)-3-(3′-fluoro-[1,1′-biphenyl]-3-yl)-isoxazolidin-2-yl)-pyrimidin-4-yl)-amino)-2-(hexa-hydropyrrolo[1,2-a]pyrazin-2(1H)-yl)-4-methoxy-phenyl)acrylamide] | < 50 nM | 50 to 500 nM
17 | C=CC(=O)Nc1cc(Nc2cc(N3OCC[C@@H]3c3cccc(-c4cccc(F)c4)c3)ncn2)c(OC)cc1N1CC2(CN(C(=O)COC)C2)C1 [Example 323, (R)-N-(5-((6-(3-(3′-fluoro-[1,1′-biphenyl]-3-yl)-isoxazolidin-2-yl)-pyrimidin-4-yl)-amino)-4-methoxy-2-(6-(2-methoxy-acetyl)-2,6-diaza-spiro[3.3]heptan-2-yl)phenyl)acryl-amide] | < 50 nM | 50 to 500 nM
18 | C=CC(=O)Nc1cc(Nc2cc(N3OCC[C@@H]3c3cc(F)cc(Oc4cccc(F)c4)c3)ncn2)c(OC)cc1N1CCN(C)[C@@H](C)C1 [Example 223, N-(2-((S)-3,4-dimethylpiperazin-1-yl)-5-((6-((R)-3-(3-fluoro-5-(3-fluorophenoxy)-phenyl)isoxazol-idin-2-yl)pyrim-idin-4-yl)amino)-4-methoxyphen-yl)acrylamide] | < 50 nM | < 50 nM
19 | C=CC(=O)Nc1cc(Nc2cc(N3OCCC3c3cccc(-c4cnn(C)c4)c3)ncn2)c(OC)cc1N(C)CCN(C)C (centres unmarked) [Example 233, N-(2-((2-(dimeth-ylamino)ethyl)-(methyl)amino)-4-methoxy-5-((6-(3-(3-(1-methyl-1H-pyrazol-4-yl)phen-yl)isoxazolidin-2-yl)pyrimidin-4-yl)amino)phenyl)-acrylamide] | < 50 nM | < 50 nM
